The experiment deals with T1, Chk2 (Homo sapiens, UniProt O96017).
T1 construct: GST; purchased Upstate (Lake Placid, N.Y.)
T1 sequence (O96017 whole entry): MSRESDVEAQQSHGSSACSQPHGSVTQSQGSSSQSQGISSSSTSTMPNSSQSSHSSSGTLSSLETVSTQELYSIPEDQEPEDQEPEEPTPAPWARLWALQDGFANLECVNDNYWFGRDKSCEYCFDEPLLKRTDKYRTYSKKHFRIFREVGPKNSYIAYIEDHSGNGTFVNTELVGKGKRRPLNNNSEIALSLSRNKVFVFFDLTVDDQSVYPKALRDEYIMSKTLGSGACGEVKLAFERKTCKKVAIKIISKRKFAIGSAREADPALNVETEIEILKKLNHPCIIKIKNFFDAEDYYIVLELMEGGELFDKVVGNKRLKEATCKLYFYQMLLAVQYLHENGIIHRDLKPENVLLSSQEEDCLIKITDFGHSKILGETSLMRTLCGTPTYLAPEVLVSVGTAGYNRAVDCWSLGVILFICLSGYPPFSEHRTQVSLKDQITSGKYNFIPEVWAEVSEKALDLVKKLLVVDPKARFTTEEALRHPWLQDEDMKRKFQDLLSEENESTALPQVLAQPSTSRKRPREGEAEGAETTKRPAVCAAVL
Put plainly: In vitro kinase assay with recombinant Chk2 (MBP phosphorylation, [γ-33P]ATP). It is filed as biochemical. The note with it: recombinant human GST-Chk2 10 nM, 25 μM MBP, 100 μM ATP, 30 min at 24° C.; read-out: The enzymatic IC50 values of compounds against Chk2. On the procedure: In vitro kinase assays with recombinant Chk1 and Chk2. Recombinant human GST-Chk1 and GST-Chk2 proteins were purchased from Upstate (Lake Placid, N.Y.). Assay conditions were based on published protocols with minor modifications. Briefly, 10 nM of Chk1 or Chk2 was used to phosphorylate 25 μM myelin basic protein (MBP) (Invitrogen, Carlsbad, Calif.) This reaction took place in a buffer that contained 8 mM MOPS, pH 7.2, 10 mM β-glycerol phosphate, 1.5 mM EGTA, 0.4 mM EDTA, 0.4 mM sodium orthovanadate, 100 μM ATP, 1 μCi [γ-^33P] ATP, 15 mM MgCl2, 0.4 mM DTT, 0.006% Brij-35, 1% glycerol and 0.2 mg/ml BSA in a final volume of 25 μl. The reaction was incubated for 30 minutes at 24° C. and was terminated by adding 100 μl of 1% trichloroacetic acid. The quenched solution was incubated for 5 min at room temperature to allow the protein to precipitate and then subsequently transferred to a 96-well white GF/B filter plate (Perkin Elmer, Wellesley, Mass.) using a Perkin Elmer Filtermate Universal Harvester. The filter plate was washed ten times with water and once with ethanol before completely drying. 40 μL of Microscint™ (Perkin Elmer, Wellesley, Mass.) was added to each well and the radioactivity that was incorporated into MBP was counted using a Perkin Elmer TopCount. The compound was titrated and its IC50 values against both Chk1 and Chk2 were determined. The reported IC50 values are the average of at least two sets of data. To determine the competitive nature of the compound with ATP, the compound concentration was varied from 0-200 nM while ATP was varied from 50-500 μM in the assays to assess the ATP effect on inhibition. Prism 4.0 software (GraphPad, San Diego Calif.) was used for the IC50 determination and Lineweaver-Burk kinetic analysis.
What is called IC50 is the concentration that gives 50% inhibition. As for `CC(CO)NC(=N)c1c(O)nsc1Nc1ccc(Nc2ccccc2)cc1` (stereo not shown) [Entry 8], the IC50 was in the range of 1 to 500 nM.

With `N=C(NCC1CCCCC1)c1c(O)nsc1Nc1ccc(Nc2ccc(Br)cc2)cc1` [Entry 4], the IC50 lay within 1 to 500 nM.

In the case of `N=C(NCC(O)CO)c1c(O)nsc1Nc1ccc(Nc2ccccc2)cc1` (stereo not shown) [Entry 12], the IC50 is 500 to 1000 nM.

`CC(C)NC(=N)c1c(O)nsc1Nc1ccc(Nc2ccc(Br)cc2)cc1` [Entry 1]: the IC50 lay in the range of 1 to 500 nM.

On to `N=C(NCCCCO)c1c(O)nsc1Nc1ccc(Nc2ccccc2)cc1` [Entry 11], for which the IC50 lay within 1000 to 2000 nM.

As for `CC(CO)NC(=N)c1c(O)nsc1Nc1ccc(Nc2ccc(Br)cc2)cc1` (stereo not shown) [Entry 2], the IC50 lay within 1 to 500 nM.

For the compound `N=C(NCCCCO)c1c(O)nsc1Nc1ccc(Nc2ccc(Br)cc2)cc1` [Entry 5], the IC50 fell in the range of 1 to 500 nM.

For `N=C(NCC(O)CO)c1c(O)nsc1Nc1ccc(Nc2ccc(Br)cc2)cc1` (stereo not shown) [Entry 6], the IC50 fell in the range of 1 to 500 nM.

As for `N=C(NCc1cccc2ccccc12)c1c(O)nsc1Nc1ccc(Nc2ccccc2)cc1` [Entry 13], the IC50 is 1 to 500 nM.

Turning to `N=C(NCC1CCCCC1)c1c(O)nsc1Nc1ccc(Nc2ccccc2)cc1` [Entry 10], the IC50 lay in the range of 1000 to 2000 nM.

On to `N=C(NCCO)c1c(O)nsc1Nc1ccc(Nc2ccccc2)cc1` [Entry 9], for which the IC50 was 500 to 1000 nM.

Regarding `N=C(NCCO)c1c(O)nsc1Nc1ccc(Nc2ccc(Br)cc2)cc1` [Entry 3], the IC50 is 1 to 500 nM.

As for `CC(C)NC(=N)c1c(O)nsc1Nc1ccc(Nc2ccccc2)cc1` [Entry 7], the IC50 was in the range of 1 to 500 nM.
